Experimental data taken from patent US12239643B2, “Therapeutic agent for inflammatory diseases, autoimmune diseases, fibrotic diseases, and cancer diseases” (MEIJI SEIKA PHARMA CO., LTD., priority 2018, dated 2025).

Assays:
Assay type in all cases: cell-based
[1] = test system: IL-17A; assay: Cytokine suppression using human peripheral blood mononuclear cells: IL-17A; conditions: human PBMC, concanavalin A 20 μg/mL; read-out: IL-17A Inhibitory Activity, Human PBMC (Test Example 4)
Experimental: (§1) First, peripheral blood mononuclear cells (PBMC) were separated from whole blood by specific gravity centrifugation. Then, the isolated peripheral blood mononuclear cells were added to RPMI-1640 medium (containing 10% fetal bovine serum, penicillin, streptomycin, L-glutamine, and 2-mercaptoethanol), and cultured in a 96-well plate at 37° C. under 5% CO2 for 0 to 1 hour. The test compound dissolved in dimethyl sulfoxide was added to each well, followed by further culture at 37° C. under 5% CO2 for 1 hour. A medium containing only dimethyl sulfoxide instead of the test compound was added to the control well. […]
(§2) The measurement results obtained by measuring the TNFα inhibitory activity and IL-5 inhibitory activity (50% inhibitory concentration) of the test compounds by the above method were evaluated in accordance with the following evaluated basis; A: less than 10 nM, B: 10 nM or more and less than 100 nM, and C: 100 nM or more. In addition, the measurement results obtained by measuring the IL-17A inhibitory activity, IL-23 inhibitory activity, IL-4 inhibitory activity, and IL-13 inhibitory activity (50% inhibitory concentration) of the test compounds were evaluated in accordance with the following evaluated basis; A: less than 500 nM, B: 500 nM or more and less than 5000 nM, and C: 5000 nM or more.

[2] = test system: IL-13; assay: Cytokine suppression using human peripheral blood mononuclear cells: IL-13; conditions: human PBMC, CD3 antibody and CD28 antibody; read-out: IL-13 Inhibitory Activity, Human PBMC (Test Example 4)
Experimental: as §1, §2

[3] = test system: IL-17A; assay: Cytokine suppression using human T cells: IL-17A; conditions: T-cell; human CD3-positive T cells, CD3 antibody, about 48 hours; read-out: IL-17A Inhibitory Activity, Human T-Cell (Test Example 5)
Experimental: First, CD3-positive T cells were separated from whole blood by a magnetic bead method using an EasySep cell separation kit. Separated T cells suspended in RPMI-1640 medium were seeded on a 96-well plate previously coated with CD3 antibody (final concentration 3 μg/mL). Further, CD28 antibody (final concentration 5 ng/mL) was added as an IL-5 production stimulus and an IL-13 production stimulus. A test compound dissolved in dimethyl sulfoxide was added to each well, followed by culture at 37° C. under 5% CO2. The culture was carried out for about 18 hours for the evaluation of the amount of TNFα, and for about 48 hours for the evaluation of the amounts of IL-17A, IL-5, and IL-13. […]
as §2, with “TNFα” for “TNFα inhibitory activity and IL-5”, “IL-5” for “IL-23 inhibitory activity, IL-4”

[4] = test system: CEM-C1 (blood cancer (leukemia)); assay: Antitumor activity: growth inhibition of CEM-C1; conditions: 120 h; CEM-C1, culturing for 5 days; read-out: 50% growth inhibitory concentration
Experimental: As antitumor activity, 50% growth inhibitory concentration of various cancer cells (CEM-C1 (blood cancer (leukemia)), SU-DHL-4 (blood cancer (lymphoma)), A549 (lung cancer), HCT-116 (colorectal cancer), and Daoy (brain tumor)) was calculated as follows. First, each of the above cancer cells was seeded on a 384-well plate and cultured overnight at 37° C. under 5% CO2. After that, the test compound was added at various concentrations on the next day, and each number of cells was measured after culturing for 5 days. The 50% growth inhibitory concentration was defined as the test compound concentration at which the number of cells measured is an intermediate value between the number of cells after culture for 5 days under the same conditions without the addition of the test compound and the number of cells at the time of seeding (before the start of culture). The measurement results obtained by measuring the 50% growth inhibitory concentration of the test compound by the above method were evaluated in accordance with the following evaluated basis; A: less than 10 μM, B: 10 μM or more and less than 50 μM, and C: 50 μM or more. As a result of using apremilast as the test compound, the evaluation was C in all cancer cells. On the other hand, as a result of using the compound obtained in Example 248 as the test compound, the evaluation was A in all cancer cells.

CCOc1cc([C@@H](CS(C)(=O)=O)N2C(=O)c3cccc(NC(C)=O)c3C2=O)ccc1OC [apremilast, reference compound]
IC50 [1]: 0.5 to 5 µM
IC50 [2]: ≥ 5 µM
IC50 [3]: 0.5 to 5 µM
IC50 [4]: ≥ 50 µM

CC(C)(O)C(F)(F)Oc1ccc(-c2nccs2)c2oc(N3CC4CC(C3)N4)nc12 [Example 248, 1-((2-(3,6-Diazabicyclo[3.1.1]heptan-3-yl)-7-(thiazol-2-yl)benzo[d]oxazol-4-yl)oxy)-1,1-difluoro-2-methylpropan-2-ol]
IC50 [1]: < 0.5 µM
IC50 [2]: < 0.5 µM
IC50 [3]: < 0.5 µM
IC50 [4]: < 10 µM
